What follows are compounds tested against T1, GLP-1R (Homo sapiens, UniProt P43220) (assay: GLP-1R activation cAMP assay (Assay 1 or Assay 2)). Details: cAMP increase in CHO cells stably expressing GLP-1R; compounds run on one of the two cAMP assays.
T1 construct: host or cells: CHO cells
Type: cell-based
Outline: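 CHO cells stably expressing human GLP-1R were incubated 1 h in HBSS/20 mM HEPES/0.1% BSA, then exposed to 10-point agonist dilutions for 30 min at 37 °C. cAMP increase was measured with an HTRF Gs dynamic kit; EC50 from sigmoidal fit of response versus log concentration.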

T1 sequence (P43220 24-463): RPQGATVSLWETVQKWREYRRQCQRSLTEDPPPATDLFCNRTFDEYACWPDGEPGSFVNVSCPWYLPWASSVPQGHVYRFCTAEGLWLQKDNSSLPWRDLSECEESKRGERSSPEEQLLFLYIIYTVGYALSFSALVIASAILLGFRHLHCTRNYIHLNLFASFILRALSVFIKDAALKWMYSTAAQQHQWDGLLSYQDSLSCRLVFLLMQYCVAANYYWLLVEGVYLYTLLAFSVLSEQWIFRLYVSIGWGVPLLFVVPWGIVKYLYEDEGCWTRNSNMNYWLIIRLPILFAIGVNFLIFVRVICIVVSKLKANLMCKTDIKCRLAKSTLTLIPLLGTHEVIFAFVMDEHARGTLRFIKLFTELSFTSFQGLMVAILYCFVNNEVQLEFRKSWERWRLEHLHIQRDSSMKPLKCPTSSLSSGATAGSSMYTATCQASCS

Compound	EC50
Cc1ncc(C#Cc2ccc(COc3cccc(-c4cc(F)c(Cc5nc6ccc(C(=O)O)cc6n5C[C@@H]5CCO5)cc4F)n3)cc2)cn1 [Example 305, (S)-2-(2,5-difluoro-4-(6-((4-((2-methylpyrimidin-5-yl)ethynyl)benzyl)oxy)pyridin-2-yl)benzyl)-1-(oxetan-2-ylmethyl)-1H-benzo[d]imidazole-6-carboxylic acid]	0.305 nM
Cn1cc(C#Cc2ccc(COc3cccc(-c4cc(F)c(Cc5nc6ccc(C(=O)O)cc6n5C[C@@H]5CCO5)cc4F)n3)cc2)cn1 [Example 306, (S)-2-(2,5-difluoro-4-(6-((4-((1-methyl-1H-pyrazol-4-yl)ethynyl)benzyl)oxy)pyridin-2-yl)benzyl)-1-(oxetan-2-ylmethyl)-1H-benzo[d]imidazole-6-carboxylic acid]	0.621 nM
O=C(O)c1ccc2nc(Cc3cc(F)c(-c4cccc(OCc5nnc(C6CC6)s5)n4)cc3F)n(C[C@@H]3CCO3)c2c1 [Example 307, (S)-2-(4-(6-((5-cyclopropyl-1,3,4-thiadiazol-2-yl)methoxy)pyridin-2-yl)-2,5-difluorobenzyl)-1-(oxetan-2-ylmethyl)-1H-benzo[d]imidazole-6-carboxylic acid]	0.59 nM
Cc1nnc(COc2cccc(-c3cc(F)c(Cc4nc5ccc(C(=O)O)cc5n4C[C@@H]4CCO4)cc3F)n2)s1 [Example 308, (S)-2-(2,5-difluoro-4-(6-((5-methyl-1,3,4-thiadiazol-2-yl)methoxy)pyridin-2-yl)benzyl)-1-(oxetan-2-ylmethyl)-1H-benzo[d]imidazole-6-carboxylic acid]	0.683 nM
CC(F)(F)c1cnc(COc2nc(-c3cc(F)c(Cc4nc5c(F)cc(C(=O)O)cc5n4C[C@@H]4CCO4)cc3F)ccc2F)s1 [Example 309, (S)-2-(4-(6-((5-(1,1-difluoroethyl)thiazol-2-yl)methoxy)-5-fluoropyridin-2-yl)-2,5-difluorobenzyl)-4-fluoro-1-(oxetan-2-ylmethyl)-1H-benzo[d]imidazole-6-carboxylic acid]	0.084 nM
O=C(O)c1cc(F)c2nc(Cc3cc(F)c(-c4ccc(F)c(OCc5ncc(Cl)s5)n4)cc3F)n(C[C@@H]3CCO3)c2c1 [Example 311, (S)-2-(4-(6-((5-chlorothiazol-2-yl)methoxy)-5-fluoropyridin-2-yl)-2,5-difluorobenzyl)-4-fluoro-1-(oxetan-2-ylmethyl)-1H-benzo[d]imidazole-6-carboxylic acid]	0.03 nM
CCOc1nnc(COc2cccc(-c3cc(F)c(Cc4nc5c(F)cc(C(=O)O)cc5n4C[C@@H]4CCO4)cc3F)n2)s1 [Example 312, (S)-2-(4-(6-((5-ethoxy-1,3,4-thiadiazol-2-yl)methoxy)pyridin-2-yl)-2,5-difluorobenzyl)-4-fluoro-1-(oxetan-2-ylmethyl)-1H-benzo[d]imidazole-6-carboxylic acid]	0.044 nM
O=C(O)c1cc(F)c2nc(Cc3cc(F)c(-c4ccc(F)c(OCc5ncc(C(F)(F)F)s5)n4)cc3F)n(C[C@@H]3CCO3)c2c1 [Example 313, (S)-2-(2,5-difluoro-4-(5-fluoro-6-((5-(trifluoromethyl)thiazol-2-yl)methoxy)pyridin-2-yl)benzyl)-4-fluoro-1-(oxetan-2-ylmethyl)-1H-benzo[d]imidazole-6-carboxylic acid]	0.032 nM
O=C(O)c1cc(F)c2nc(Cc3cc(F)c(-c4cccc(OCc5ccc(Cl)s5)n4)cc3F)n(C[C@@H]3CCO3)c2c1 [Example 314, (S)-2-(4-(6-((5-chlorothiophen-2-yl)methoxy)pyridin-2-yl)-2,5-difluorobenzyl)-4-fluoro-1-(oxetan-2-ylmethyl)-1H-benzo[d]imidazole-6-carboxylic acid]	0.094 nM
COCCn1c(Cc2cc(F)c(-c3cccc(OCc4nnc(OC)s4)n3)cc2Cl)nc2c(F)cc(C(=O)O)cc21 [Example 315, 2-(2-chloro-5-fluoro-4-(6-((5-methoxy-1,3,4-thiadiazol-2-yl)methoxy)pyridin-2-yl)benzyl)-4-fluoro-1-(2-methoxyethyl)-1H-benzo[d]imidazole-6-carboxylic acid]	0.764 nM
N#Cc1cccc(C#Cc2cnc(COc3cccc(-c4cc(F)c(Cc5nc6ccc(C(=O)O)cc6n5C[C@@H]5CCO5)cc4F)n3)s2)c1 [Example 316, (S)-2-(4-(6-((5-((3-cyanophenyl)ethynyl)thiazol-2-yl)methoxy)pyridin-2-yl)-2,5-difluorobenzyl)-1-(oxetan-2-ylmethyl)-1H-benzo[d]imidazole-6-carboxylic acid]	0.129 nM
O=C(O)c1ccc2nc(Cc3cc(F)c(-c4cccc(OCc5ccc(Cl)s5)n4)cc3F)n(C[C@@H]3CCO3)c2c1 [Example 317, (S)-2-(4-(6-((5-chlorothiophen-2-yl)methoxy)pyridin-2-yl)-2,5-difluorobenzyl)-1-(oxetan-2-ylmethyl)-1H-benzo[d]imidazole-6-carboxylic acid]	0.125 nM
CC(F)(F)c1cnc(COc2cccc(-c3cc(F)c(Cc4nc5c(F)cc(C(=O)O)cc5n4C[C@@H]4CCO4)cc3F)n2)s1 [Example 318, (S)-2-(4-(6-((5-(1,1-difluoroethyl)thiazol-2-yl)methoxy)pyridin-2-yl)-2,5-difluorobenzyl)-4-fluoro-1-(oxetan-2-ylmethyl)-1H-benzo[d]imidazole-6-carboxylic acid]	0.028 nM
O=C(O)c1cc(F)c2nc(Cc3cc(F)c(-c4cccc(OCc5ncc(Cl)s5)n4)cc3F)n(C[C@@H]3CCO3)c2c1 [Example 319, (S)-2-(4-(6-((5-chlorothiazol-2-yl)methoxy)pyridin-2-yl)-2,5-difluorobenzyl)-4-fluoro-1-(oxetan-2-ylmethyl)-1H-benzo[d]imidazole-6-carboxylic acid]	0.034 nM
CC(C)(C)C#Cc1cnc(COc2cccc(-c3cc(F)c(Cc4nc5ccc(C(=O)O)cc5n4C[C@@H]4CCO4)cc3F)n2)s1 [Example 320, (S)-2-(4-(6-((5-(3,3-dimethylbut-1-yn-1-yl)thiazol-2-yl)methoxy)pyridin-2-yl)-2,5-difluorobenzyl)-1-(oxetan-2-ylmethyl)-1H-benzo[d]imidazole-6-carboxylic acid]	0.537 nM
CC1(C#Cc2nnc(COc3cccc(-c4cc(F)c(Cc5nc6ccc(C(=O)O)cc6n5C[C@@H]5CCO5)cc4F)n3)s2)CC1 [Example 321, (S)-2-(2,5-difluoro-4-(6-((5-((1-methylcyclopropyl)ethynyl)-1,3,4-thiadiazol-2-yl)methoxy)pyridin-2-yl)benzyl)-1-(oxetan-2-ylmethyl)-1H-benzo[d]imidazole-6-carboxylic acid]	0.246 nM
O=C(O)c1ccc2nc(Cc3cc(F)c(-c4cccc(OCc5ncc(C#CC6CCOC6)s5)n4)cc3F)n(C[C@@H]3CCO3)c2c1 (stereo partly drawn) [Example 322, 2-(2,5-difluoro-4-(6-((5-((tetrahydrofuran-3-yl)ethynyl)thiazol-2-yl)methoxy)pyridin-2-yl)benzyl)-1-(((S)-oxetan-2-yl)methyl)-1H-benzo[d]imidazole-6-carboxylic acid]	0.349 nM
O=C(O)c1ccc2nc(Cc3cc(F)c(-c4cccc(OCc5ncc(C#CC6(O)CCC6)s5)n4)cc3F)n(C[C@@H]3CCO3)c2c1 [Example 323, (S)-2-(2,5-difluoro-4-(6-((5-((1-hydroxycyclobutyl)ethynyl)thiazol-2-yl)methoxy)pyridin-2-yl)benzyl)-1-(oxetan-2-ylmethyl)-1H-benzo[d]imidazole-6-carboxylic acid]	0.281 nM
O=C(O)c1cc(F)c2nc(Cc3cc(F)c(-c4cccc(OCc5ncc(C(F)F)s5)n4)cc3F)n(C[C@@H]3CCO3)c2c1 [Example 324, (S)-2-(4-(6-((5-(difluoromethyl)thiazol-2-yl)methoxy)pyridin-2-yl)-2,5-difluorobenzyl)-4-fluoro-1-(oxetan-2-ylmethyl)-1H-benzo[d]imidazole-6-carboxylic acid]	0.123 nM
N#Cc1ccc(C#Cc2cnc(COc3cccc(-c4cc(F)c(Cc5nc6ccc(C(=O)O)cc6n5C[C@@H]5CCO5)cc4F)n3)s2)cc1 [Example 325, (S)-2-(4-(6-((5-((4-cyanophenyl)ethynyl)thiazol-2-yl)methoxy)pyridin-2-yl)-2,5-difluorobenzyl)-1-(oxetan-2-ylmethyl)-1H-benzo[d]imidazole-6-carboxylic acid]	0.582 nM
O=C(O)c1ccc2nc(Cc3cc(F)c(-c4cccc(OCc5ncc(C#CC6(C(F)F)CC6)s5)n4)cc3F)n(C[C@@H]3CCO3)c2c1 [Example 326, (S)-2-(4-(6-((5-((1-(difluoromethyl)cyclopropyl)ethynyl)thiazol-2-yl)methoxy)pyridin-2-yl)-2,5-difluorobenzyl)-1-(oxetan-2-ylmethyl)-1H-benzo[d]imidazole-6-carboxylic acid]	0.451 nM
Cc1cnc(COc2cccc(-c3cc(F)c(Cc4nc5ccc(C(=O)O)cc5n4C[C@@H]4CCO4)cc3F)n2)s1 [Example 327, (S)-2-(2,5-difluoro-4-(6-((5-methylthiazol-2-yl)methoxy)pyridin-2-yl)benzyl)-1-(oxetan-2-ylmethyl)-1H-benzo[d]imidazole-6-carboxylic acid]	0.381 nM
CC(C)(C#N)C#Cc1cnc(COc2cccc(-c3cc(F)c(Cc4nc5ccc(C(=O)O)cc5n4C[C@@H]4CCO4)cc3F)n2)s1 [Example 328, (S)-2-(4-(6-((5-(3-cyano-3-methylbut-1-yn-1-yl)thiazol-2-yl)methoxy)pyridin-2-yl)-2,5-difluorobenzyl)-1-(oxetan-2-ylmethyl)-1H-benzo[d]imidazole-6-carboxylic acid]	0.342 nM
CC1(C#Cc2cnc(COc3cccc(-c4cc(F)c(Cc5nc6ccc(C(=O)O)cc6n5C[C@@H]5CCO5)cc4F)n3)s2)CC1 [Example 329, (S)-2-(2,5-difluoro-4-(6-((5-((1-methylcyclopropyl)ethynyl)thiazol-2-yl)methoxy)pyridin-2-yl)benzyl)-1-(oxetan-2-ylmethyl)-1H-benzo[d]imidazole-6-carboxylic acid]	0.226 nM

— patent publication US20250312352A1, “GLP-1R MODULATING COMPOUNDS” (Gilead Sciences, Inc., priority 2021, published 2025)
